One block for each molecule: values may come before it.
What was measured:
[1] = test system: skin of the upper lip (philtrum); experiment: Cooling sensation bioassay, ointment applied to skin above the upper lip (philtrum) of test subjects; type: in vivo, human; conditions: for duration of action: applied to the skin of test subjects; for qualitative aspects of sensation (coolness and not cold, duration at least three hours): topical, philtrum method
Excerpt: A reliable place for topical application is on the upper lip, above the vermillion border of the lips, on the philtrum, lateral to the philtrum until the nasolabial folds, and on the lower nostrils. This part of the face is known to be densely innervated with cold receptors, second only to the surface of eyeball. Tingling, cool and cold sensations may be experienced and rated for intensity. This test is quite accurate for predicting the cooling activity of candidate N-arylshydroxyalkylidene-cCarboxamide drugs, but most importantly, it also measures the duration of drug action on the sensory receptors. The duration of action is not measured in a receptor assay and is difficult to quantify on the tongue because of the dynamic fluid conditions in the oral cavity and the presence of taste factors that affect thermosensation.
For bioassay of […] on the skin, CPS-195 was stirred and dissolved in warm liquid Aquaphor® ointment to yield ointment concentrations of 0.25, 0.5, 1, and 2% wt/vol. After cooling, 50 to 80 mg of the solid ointment was placed on the tip of a plastic stick and applied to the skin above the upper lip, on the philtrum, and lateral to the philtrum up to the nasolabial folds, of test subjects and the onset and duration of cooling sensations recorded. Each of the compounds produce cooling on the skin of the upper lip with duration of action of more than 1 hour.
The intensity of the subjective skin sensation is rated as 0, 1, 2 or 3 with 0 as no change, 1 as slight coolness, cold, or tingling, 2 as clear cut signal of coolness, cold, or tingling, and 3 as robust cooling or cold. The interval for recording sensations is at 5 minute intervals, until two successive zeroes are obtained. The results are averaged values of 4 to 6 separate trials in the same individual. The data were plotted using SigmaPlot (Systat Software, Point Richmond Calif.) and a smoothing function with a negative exponential was used for analysis and statistical fit of the results.
The onset of drug action was taken as the time to reach 2 units of coolness intensity, and offset of drug action was the time when coolness intensity drops below 1.5, after previously surpassing 2 units. The duration of cooling action was defined as the offset time minus the onset time, which in this case averaged 2 minutes. The quality of the sensation was also noted, such as refreshing coolness, cold, or if the sensation was accompanied by irritation (stinging or burning). The quality of the sensation was not rated for intensity.

[2] = molecular target: T1, TRP-M8 receptor (Homo sapiens, UniProt Q7Z2W7); experiment: TRP-M8 receptor assay; type: cell-based
T1 construct: expressed in transfected cells
T1 sequence (Q7Z2W7 whole entry): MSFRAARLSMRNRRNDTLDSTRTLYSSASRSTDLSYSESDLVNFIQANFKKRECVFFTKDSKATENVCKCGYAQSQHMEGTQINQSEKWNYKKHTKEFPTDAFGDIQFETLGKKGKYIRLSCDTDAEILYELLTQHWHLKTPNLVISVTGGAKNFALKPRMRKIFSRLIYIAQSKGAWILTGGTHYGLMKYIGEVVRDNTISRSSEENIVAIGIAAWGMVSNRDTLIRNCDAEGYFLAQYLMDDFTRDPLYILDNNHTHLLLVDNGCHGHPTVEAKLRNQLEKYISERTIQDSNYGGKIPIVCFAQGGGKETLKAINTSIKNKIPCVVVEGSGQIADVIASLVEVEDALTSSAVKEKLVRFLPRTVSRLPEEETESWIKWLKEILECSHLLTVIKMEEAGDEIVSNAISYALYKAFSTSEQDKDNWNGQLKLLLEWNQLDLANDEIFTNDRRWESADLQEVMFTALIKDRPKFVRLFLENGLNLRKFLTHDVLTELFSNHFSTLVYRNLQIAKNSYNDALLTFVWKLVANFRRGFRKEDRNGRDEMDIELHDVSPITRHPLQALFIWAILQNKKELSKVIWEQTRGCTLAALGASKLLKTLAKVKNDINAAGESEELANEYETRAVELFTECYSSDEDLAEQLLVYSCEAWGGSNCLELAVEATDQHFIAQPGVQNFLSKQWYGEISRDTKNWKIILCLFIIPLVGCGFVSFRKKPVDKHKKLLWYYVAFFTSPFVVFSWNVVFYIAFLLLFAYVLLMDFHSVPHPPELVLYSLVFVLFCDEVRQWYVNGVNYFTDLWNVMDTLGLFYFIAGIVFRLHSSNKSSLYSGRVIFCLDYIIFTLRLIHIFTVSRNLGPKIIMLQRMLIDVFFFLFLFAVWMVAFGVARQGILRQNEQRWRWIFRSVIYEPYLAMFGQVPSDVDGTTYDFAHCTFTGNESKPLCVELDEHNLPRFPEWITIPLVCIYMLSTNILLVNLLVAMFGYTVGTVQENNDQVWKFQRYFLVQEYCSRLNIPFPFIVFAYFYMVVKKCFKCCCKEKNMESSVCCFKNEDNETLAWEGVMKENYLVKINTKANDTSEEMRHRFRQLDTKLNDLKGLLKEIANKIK
Excerpt: Pain was defined by Sir Charles Sherrington as “the psychic adjunct of an imperative protective reflex”. Psychic events such as cooling, irritation, itch, and pain cannot be expressed by animals (animals cannot say “ouch” or that “it itches”) so the sensory effects of chemicals must be indirectly inferred. Receptor assays, based on cells transfected with the gene for TRP-M8 or TRP-A1, may be used as a model of sensory processes. […] But, as noted below, these assays give no information on how long and for what quality of sensations is occurring on human subjects. The best information on the pharmacological properties of these chemicals must therefore be derived from human experiment.
The sensations are more cold than cool, and have the sting and harshness of high concentrations of menthol. […] CPS-112 was therefore a disappointment in spite of its high potency on the receptor assay.

[3] = test system: oral cavity; experiment: Cooling sensation after placement on the dorsal surface of the tongue; type: in vivo, human
Method: The onset of cooling was 3 to 5 minutes, but once the effect was established, the entire oral cavity and pharyngeal surfaces (oro-, laryngo- and naso-pharynx) felt cool.
CPS-195 was formulated as a 3% wt/wt tablet in Ludipress®, a rapidly disintegrating direct compression excipient made by BASF Corp. The tablet size was 60 mg so each unit contained 1.8 mg of CPS-195. […] For example, applied onto the mucous membranes of the oral cavity it can soothe the discomforts of pharyngitis/laryngitis, oral mucositis, oral ulcers, and idiopathic facial pain. In the pharynx and upper airways, CPS-195 may be used to reduce or to treat cough, asthma, and chronic obstructive pulmonary disease. On the skin, CPS-195 can be used to treat the discomfort of severe acne, eczema, diabetic ulcers, and the like.

[4] = 2 mg on the dorsal surface of the tongue

Structure (SMILES): CC1CCC(C(C)C)C(O)C1 (single isomer, unassigned; (-)) [(−)-menthol, reference compound]
- duration of action [1]: less than one

- active concentrations on the TRP-M8 receptor assay [2]: sub-micromolar
Structure (SMILES): COc1ccc(NC(=O)[C@@H]2C[C@H](C)CC[C@H]2C(C)C)cc1 [WS-12, reference compound]
- time at which action is dissipated ([1]; 2% preparation): one
- time at which duration of action peaks ([1]; 2% preparation): 30 min
- sensation elicited on the philtrum and its environs ([1]; applied at 1 to 2%): strong cold sensations
- qualitative aspects of sensation (coolness and not cold, duration at least three hours) [1]: sensations of cold, but of brief duration

Structure (SMILES): CC(C)[C@@H]1CC[C@@H](C)C[C@H]1C(=O)Nc1ccc(S(=O)(=O)Nc2ncccn2)cc1 [CPS-125]
- qualitative aspects of sensation (coolness and not cold, duration at least three hours) [1]: met

Structure (SMILES): CCOC(=O)CNC(=O)[C@@H]1C[C@H](C)CC[C@H]1C(C)C [WS-5, reference compound]
- duration of action [1]: less than one

Structure (SMILES): CC(C)[C@@H]1CC[C@@H](C)C[C@H]1C(=O)N(C)CC(O)c1cccc(O)c1 (stereo in doubt) [CPS-195, 2-isopropyl-5-methyl-cyclohexanecarboxylic acid (2′-hydroxy-2′-[3″-hydroxy-phenyl]-ethyl)-N-methyl-amide]
- duration of action (coolness and cold on skin of the upper lip) ([1]; 0.25% wt/vol in Aquaphor ointment): 1.2 h
- duration of action (coolness and cold on skin of the upper lip) ([1]; 0.5% wt/vol in Aquaphor ointment): 1.8 h
- duration of action (coolness and cold on skin of the upper lip) ([1]; 1% wt/vol in Aquaphor ointment): 2.4 h
- duration of action (coolness and cold on skin of the upper lip) ([1]; 2% wt/vol in Aquaphor ointment): 5.2 h
- potency compared to CPS-179, CPS-190 and CPS-192 ([1]; skin of the upper lip): most potent
- duration of cooling sensation within the oral cavity [3, 4]: over 4 hours
- quality of cool/cold sensations [3, 4]: pleasant and not aversive
- duration of action ([3]; single dose of 2 mg applied to the surface of the tongue or on to the philtrum): ~4 h

Source: patent publication US20100041757A1, “N-ARYL-HYDROXYALKYLIDENE-CARBOXAMIDE COMPOUNDS AND THEIR USE” (priority 2006, published 2010)
